Several values for one entry are separate records, joined by “and”; a condition that tells them apart may be missing. Equal values may be shown once.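 Where inhibition never reached the appropriate level, the endpoint shown equals the highest concentration tested. Otherwise, values were interpolated linearly from a five-concentration, 48-hour dose response in 96-well plates. GI50: concentration for 50% inhibition of growth. TGI is the concentration that stops growth completely.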
Columns and labels:
Test in all cases: NCI-60 cell line screen, 48 h
HOP-62 NSCLC = system: HOP-62 NSCLC
HOP-92 NSCLC = system: HOP-92 NSCLC
KM12 colon = system: KM12 colon
M14 melanoma = system: M14 melanoma
NCI-H460 lung = system: NCI-H460 lung
NCI/ADR-RES ovarian = system: NCI/ADR-RES ovarian
OVCAR-4 ovarian = system: OVCAR-4 ovarian
SF-295 CNS = system: SF-295 CNS
SF-539 CNS = system: SF-539 CNS
SW-620 colon = system: SW-620 colon

SMILES	GI50 (HOP-62 NSCLC)	TGI (HOP-62 NSCLC)	GI50 (HOP-92 NSCLC)	TGI (HOP-92 NSCLC)	GI50 (KM12 colon)	TGI (KM12 colon)	GI50 (M14 melanoma)	TGI (M14 melanoma)	GI50 (NCI-H460 lung)	TGI (NCI-H460 lung)	GI50 (NCI/ADR-RES ovarian)	TGI (NCI/ADR-RES ovarian)	GI50 (OVCAR-4 ovarian)	TGI (OVCAR-4 ovarian)	GI50 (SF-295 CNS)	TGI (SF-295 CNS)	GI50 (SF-539 CNS)	TGI (SF-539 CNS)	GI50 (SW-620 colon)	TGI (SW-620 colon)
CC(C)(C)C(=O)c1c(C(F)(F)F)n([O-])c2cc(Cl)c(Cl)cc2[n+]1=O	1.53 µM	2.89 µM	1.47 µM	2.78 µM	0.19 µM	0.45 µM	0.998 µM	2.57 µM	0.279 µM	0.767 µM	0.567 µM	1.37 µM	1.14 µM	2.37 µM	0.505 µM	0.973 µM	0.563 µM	1.04 µM	0.244 µM	0.644 µM
O=C(N=Nc1c(Cl)c(O)c2ccccc2c1O)C(=O)Nc1cccc(C(F)(F)F)c1	11.5 µM	24.7 µM	1.98 µM	15.6 µM	5.45 µM	16.6 µM	1.96 µM	4.1 µM	3.3 µM	12.4 µM	3.52 µM	17.7 µM	6.03 µM	26.9 µM	6.05 µM	19.7 µM	3.51 µM	14.4 µM	3.24 µM	15.6 µM
CSc1ccc(NC(=O)Nc2cc(C)ccn2)cc1		> 100 µM		> 100 µM		> 100 µM		> 100 µM		> 100 µM		> 100 µM		> 100 µM		> 100 µM		> 100 µM		> 100 µM
COc1cc(C2c3cc4c(cc3[C@@H](Nc3ccc([N+](=O)[O-])cc3)C3COC(=O)[C@H]23)OCO4)cc(OC)c1O (stereo partly specified)		0.947 µM and 2.07 µM	0.393 µM			6.42 µM	0.543 µM	12.7 µM	0.0658 µM	2.14 µM		> 93.6 µM		62.4 µM		4.85 µM	0.734 µM	3.79 µM	0.783 µM	> 91.7 µM
CC1=CC(C)(C)Nc2ccc(Cc3ccc4c(c3)C(C)=CC(C)(C)N4)cc21	21.3 µM	> 100 µM	8.42 µM	65.6 µM	8.34 µM	72.6 µM	28.4 µM	> 100 µM	12 µM	55.1 µM	18.1 µM	> 100 µM	7.24 µM	> 100 µM	9.78 µM	> 100 µM	23.6 µM	89.3 µM	11.5 µM	25.5 µM
COc1c(B(O)O)cccc1-c1nc2ccc3[nH]ncc3c2c2c1CCCC2	1.31 µM	19.6 µM		6.56 µM	2.25 µM	10.9 µM	4.06 µM	13.2 µM	1.43 µM	11.2 µM	2.25 µM	15.2 µM	4.23 µM	27.1 µM	1.89 µM	12.6 µM	0.133 µM	2.81 µM	1.17 µM	12.1 µM
Cc1ccc(-c2c3c(nn2-c2ccc(S(=O)(=O)NC(=O)NC4CCCCC4)cc2)-c2ccccc2C3)cc1	18.8 µM	38.2 µM	2.65 µM	15.8 µM	13 µM	38.2 µM	14.8 µM	30.1 µM	8.75 µM	26.3 µM	16 µM	54.5 µM	18.2 µM	39.7 µM	18.7 µM	48.7 µM	9.48 µM	21.9 µM	2.65 µM	6.31 µM
CNCC(=O)NC(CO)C(=O)NC(CO)C(=O)NC1C(C(N)=O)OC(n2ccc(N)nc2=O)C(O)C1O (stereo unspecified)	6.44 µg/mL	32.3 µg/mL	4.83 µg/mL	> 50 µg/mL	20.3 µg/mL	> 50 µg/mL	9.22 µg/mL	35.3 µg/mL	3.39 µg/mL	31.3 µg/mL	5.79 µg/mL	28 µg/mL	0.495 µg/mL	3.41 µg/mL	2.78 µg/mL	17 µg/mL	5.01 µg/mL	28.7 µg/mL	> 50 µg/mL	> 50 µg/mL
CN(C)c1cc2c(Nc3ccc4c(cnn4Cc4ccccc4)c3)ncnc2cn1	8.35 µM	> 23.9 µM	8.82 µM	> 25 µM	7.29 µM	> 20 µM	14.8 µM	> 25 µM	10.3 µM	> 25 µM	5.85 µM	> 25 µM	14.2 µM	> 25 µM	7.58 µM	> 23.1 µM	10.1 µM	> 25 µM	15.3 µM	> 25 µM
C=C1C(=O)O[C@@H]2CC(CO)=C([C@@H](C)CCCO)[C@@H](OC(=O)/C(C)=C\C)[C@H]12		> 100 µM		56.7 µM		43.7 µM		> 81.4 µM		48.2 µM		75.4 µM		> 84.9 µM		> 100 µM		> 71.3 µM		44.5 µM
OC(CN1CCCC2CCCCC21)c1cc2ccccc2c2ccccc12 (stereo unspecified)	1.84 µM	3.91 µM	1.24 µM	3.42 µM	1.87 µM	4.04 µM	1.52 µM	2.86 µM	1.83 µM	3.53 µM	2.07 µM	5.19 µM	2.39 µM	12.4 µM	1.45 µM	3.21 µM	1.99 µM	4.74 µM	1.66 µM	3.36 µM
C=C1C(=O)O[C@H]2[C@H]1CC/C(COC(=O)CCCCCCCC(=O)OC/C1=C/CC[C@@]3(C)O[C@H]3[C@H]3OC(=O)C(=C)[C@@H]3CC1)=C\CC[C@@]1(C)O[C@@H]21	2.19 µM	5.68 µM	2.16 µM	5.07 µM	1.95 µM	4.26 µM	1.77 µM	4.11 µM	3.06 µM	9.1 µM	3.35 µM	> 100 µM	4.58 µM	20.1 µM	3.6 µM	15.2 µM	1.83 µM	3.83 µM	1.46 µM	3.24 µM
Cc1c(Cl)cccc1NC(=O)c1sc2nc3c(cc2c1N)C(=O)CCC3	0.102 µM	29.8 µM	0.0479 µM	24.1 µM	0.0658 µM	> 100 µM	0.0655 µM		0.0407 µM	> 100 µM	0.0463 µM	12.9 µM	0.569 µM	> 84.7 µM	0.0429 µM	> 100 µM	0.0353 µM	0.19 µM	0.0484 µM	> 100 µM
O=C(CSC(c1ccccc1)c1ccccc1)N/N=C/c1ccccc1Cl	22.7 µM	> 76.8 µM	7.7 µM	37.2 µM	27.1 µM	88.8 µM	36.8 µM	> 100 µM	34 µM	> 63.2 µM	13.6 µM	> 74.6 µM	11.3 µM	77.2 µM	15.9 µM	> 68.4 µM	29 µM	> 90.2 µM	34.7 µM	> 100 µM
CC(=O)O[C@@H]1C2=C(C)C3(CC3)[C@@](C)(O)C(=O)C2=C[C@@]1(C)CO	0.474 µM	4.52 µM	1.87 µM	5.75 µM	1.32 µM	8.59 µM	0.34 µM	1.61 µM	0.296 µM	1.08 µM	0.416 µM	4.11 µM	0.674 µM	4.44 µM	0.406 µM	9.87 µM	1.02 µM	3.38 µM	0.355 µM	> 100 µM
C[C@H]1COCCN1c1nc(-c2cnc(N)cc2C(F)F)nc(N2CCOCC2)n1	0.414 µM	> 100 µM	0.0197 µM	0.197 µM	0.318 µM	41 µM	0.129 µM	29.7 µM	0.113 µM	> 100 µM	0.253 µM	> 21.7 µM	0.174 µM		0.119 µM	0.645 µM	0.235 µM	1.45 µM	0.258 µM	> 100 µM

From PubChem BioAssay (NCI)
